Values joined by “and” are separate entries in the source; they are usually repeats but may differ in a detail not shown here. Identical values can stand only once. Inconclusive results and toxic doses are left out.
Tested on: CD2F1 mice, L1210 leukemia ip, survival T/C
Assay: NCI In Vivo Anticancer Drug Screen. Data for tumor model L1210 Leukemia (intraperitoneal) in CD2F1 (CDF1) mice
Conditions: higher = longer survival
Procedure, shortened: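 Vehicle-treated tumor-bearing mice served as controls (C) for compound-treated mice (T). Reported figure is T divided by C.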

[1] = endpoint: mean survival time, dose: 100.0 mg/kg/injection, schedule: Q04DX003 (ip), vehicle: Klucel (hydroxypropylcellulose) (HPC)
[2] = endpoint: mean survival time, dose: 200.0 mg/kg/injection, schedule: Q04DX003 (ip), vehicle: Klucel (hydroxypropylcellulose) (HPC)
[3] = endpoint: mean survival time, dose: 100.0 mg/kg/injection, schedule: Q04DX003 (ip), vehicle: saline with Tween-80
[4] = endpoint: mean survival time, dose: 200.0 mg/kg/injection, schedule: Q04DX003 (ip), vehicle: saline with Tween-80
[5] = endpoint: mean survival time, dose: 400.0 mg/kg/injection, schedule: Q04DX003 (ip), vehicle: saline with Tween-80

**Q.** `COC(=O)CCc1nc2ccccc2c(=O)[nH]1` was tested. Which T/C [1] did it give?
**A.** 102 % of control

**Q.** And the T/C [2]?
**A.** 109 % of control

**Q.** And the T/C (endpoint: mean survival time, dose: 400.0 mg/kg/injection, schedule: Q04DX003 (ip), vehicle: Klucel (hydroxypropylcellulose) (HPC))?
**A.** 102 % of control

**Q.** With `COc1ccc(C(=O)c2ncccc2C(=O)O)cc1OC` as the molecule, how does the T/C (endpoint: mean survival time, dose: 12.5 mg/kg/injection, schedule: Q01DX009 (ip), vehicle: other) read?
**A.** 98 % of control

**Q.** What about the T/C (endpoint: mean survival time, dose: 25.0 mg/kg/injection, schedule: Q01DX009 (ip), vehicle: other) of the same molecule?
**A.** 104 % of control

**Q.** And the T/C (endpoint: mean survival time, dose: 50.0 mg/kg/injection, schedule: Q01DX009 (ip), vehicle: other)?
**A.** 104 % of control

**Q.** And the T/C (endpoint: mean survival time, dose: 100.0 mg/kg/injection, schedule: Q01DX009 (ip), vehicle: other)?
**A.** 104 % of control

**Q.** What about the T/C (endpoint: mean survival time, dose: 200.0 mg/kg/injection, schedule: Q01DX009 (ip), vehicle: other) of the same molecule?
**A.** 105 % of control

**Q.** Which results are given for `CC(=O)OC1(C)C=C/C(=N\S(=O)(=O)c2ccc(C)cc2)c2ccccc21` (centres undefined)?
**A.** T/C [3]: 95 % of control; T/C [4]: 97 % of control; T/C [5]: 95 % of control

**Q.** What does the source list for `Cc1cc([N+](=O)[O-])cc(C)c1O`?
**A.** T/C [3]: 100 % of control; T/C [4]: 96 % of control; T/C [5]: 100 % of control

**Q.** With `O=C1OC(=O)C2C3C=CC(C12)C1C2C(=O)OC(=O)C2C31` (centres undefined) as the molecule, how does the T/C [3] read?
**A.** 91 % of control and 101 % of control

**Q.** What about the T/C [4] of the same molecule?
**A.** 94 % of control and 97 % of control

**Q.** And the T/C [5]?
**A.** 123 % of control and 94 % of control

**Q.** And the T/C (endpoint: mean survival time, dose: 600.0 mg/kg/injection, schedule: Q04DX003 (ip), vehicle: saline with Tween-80)?
**A.** 110 % of control

**Q.** With `CCC1=C[C@H]2CN(CCc3c([nH]c4ccccc34)[C@@](C(=O)OC)(c3cc4c(cc3OC)N(C)[C@H]3[C@@](O)(C(=O)OC)[C@H](OC(C)=O)[C@]5(CC)C=CCN6CC[C@]43[C@@H]65)C2)C1` as the molecule, how does the T/C (endpoint: mean survival time, dose: 0.25 mg/kg/injection, schedule: Q01DX009 (ip), vehicle: water) read?
**A.** 102 % of control

**Q.** And the T/C (endpoint: mean survival time, dose: 2.0 mg/kg/injection, schedule: Q01DX009 (ip), vehicle: water)?
**A.** 161 % of control

**Q.** And the T/C (endpoint: mean survival time, dose: 4.0 mg/kg/injection, schedule: Q01DX009 (ip), vehicle: water)?
**A.** 91 % of control

**Q.** And the T/C (endpoint: median survival time, dose: 0.5 mg/kg/injection, schedule: Q01DX009 (ip), vehicle: water)?
**A.** 115 % of control

**Q.** Which results are given for `CC(=O)Nc1ccc(SCCCc2c(N)nc(N)nc2N)cc1`?
**A.** T/C (endpoint: mean survival time, dose: 100.0 mg/kg/injection, schedule: Q01DX001 (ip), vehicle: saline with Tween-80): 100 % of control; T/C (endpoint: mean survival time, dose: 200.0 mg/kg/injection, schedule: Q01DX001 (ip), vehicle: saline with Tween-80): 100 % of control

**Q.** Which T/C [5] does the source give for `Nc1c2c(nn1-c1ccccc1)C(=O)N(CCc1ccccc1)C2` here?
**A.** 90 % of control

**Q.** With `N/N=C1/C(=O)c2cccc3cccc1c23` as the molecule, how does the T/C [3] read?
**A.** 100 % of control

**Q.** What about the T/C [4] of the same molecule?
**A.** 102 % of control

**Q.** What about the T/C [5] of the same molecule?
**A.** 92 % of control

**Q.** Which T/C (endpoint: mean survival time, dose: 12.5 mg/kg/injection, schedule: Q04DX003 (ip), vehicle: saline with Tween-80) does the source give for `CC12CCCCC1SC(F)(F)C2(F)F` (centres undefined) here?
**A.** 111 % of control

**Q.** What about the T/C (endpoint: mean survival time, dose: 25.0 mg/kg/injection, schedule: Q04DX003 (ip), vehicle: saline with Tween-80) of the same molecule?
**A.** 88 % of control

**Q.** And the T/C (endpoint: mean survival time, dose: 50.0 mg/kg/injection, schedule: Q04DX003 (ip), vehicle: saline with Tween-80)?
**A.** 103 % of control

**Q.** How did the T/C (endpoint: mean survival time, dose: 8.0 mg/kg/injection, schedule: Q01DX007 (ip), vehicle: saline) turn out when `N/C(=N\O)c1cn(C2OC(CO)C(O)C2O)c2ncnc(N)c12` (centres undefined) was run?
**A.** 111 % of control

**Q.** What does the source list for `CNc1c(Cl)c(Cl)c(Br)c(Cl)c1Cl`?
**A.** T/C [3]: 100 % of control; T/C [4]: 95 % of control; T/C [5]: 101 % of control

**Q.** How did the T/C (endpoint: mean survival time, dose: 25.0 mg/kg/injection, schedule: Q01DX009 (ip), vehicle: saline with Tween-80) turn out when `COc1ccc(CN(CCO)CCCCCCN(CCO)Cc2ccc(OC)cc2)cc1` was run?
**A.** 93 % of control

**Q.** And the T/C (endpoint: mean survival time, dose: 50.0 mg/kg/injection, schedule: Q01DX009 (ip), vehicle: saline with Tween-80)?
**A.** 96 % of control

**Q.** What about the T/C (endpoint: mean survival time, dose: 100.0 mg/kg/injection, schedule: Q01DX009 (ip), vehicle: saline with Tween-80) of the same molecule?
**A.** 98 % of control

**Q.** And the T/C (endpoint: median survival time, dose: 50.0 mg/kg/injection, schedule: Q04DX002 (ip), vehicle: saline)?
**A.** 100 % of control

**Q.** What about the T/C (endpoint: median survival time, dose: 100.0 mg/kg/injection, schedule: Q04DX002 (ip), vehicle: saline) of the same molecule?
**A.** 100 % of control

**Q.** With `CN(C)c1ccc(N=Nc2ccc(CI)cc2)cc1` as the molecule, how does the T/C (endpoint: mean survival time, dose: 25.0 mg/kg/injection, schedule: Q04DX003 (ip), vehicle: Klucel (hydroxypropylcellulose) (HPC)) read?
**A.** 89 % of control

**Q.** And the T/C (endpoint: mean survival time, dose: 50.0 mg/kg/injection, schedule: Q04DX003 (ip), vehicle: Klucel (hydroxypropylcellulose) (HPC))?
**A.** 112 % of control

**Q.** And the T/C [1]?
**A.** 96 % of control

**Q.** And the T/C [2]?
**A.** 93 % of control

**Q.** With `O=c1nc(/C=C(\O)c2ccccc2)ccn1C1OC(CO)C(O)C1O` (centres undefined) as the molecule, how does the T/C (endpoint: mean survival time, dose: 12.5 mg/kg/injection, schedule: Q01DX005 (ip), vehicle: distilled water + Tween-80) read?
**A.** 105 % of control

**Q.** And the T/C (endpoint: mean survival time, dose: 25.0 mg/kg/injection, schedule: Q01DX005 (ip), vehicle: distilled water + Tween-80)?
**A.** 94 % of control

**Q.** What about the T/C (endpoint: mean survival time, dose: 50.0 mg/kg/injection, schedule: Q01DX005 (ip), vehicle: distilled water + Tween-80) of the same molecule?
**A.** 91 % of control

**Q.** And the T/C (endpoint: mean survival time, dose: 100.0 mg/kg/injection, schedule: Q01DX005 (ip), vehicle: distilled water + Tween-80)?
**A.** 94 % of control

**Q.** And the T/C (endpoint: mean survival time, dose: 200.0 mg/kg/injection, schedule: Q01DX005 (ip), vehicle: distilled water + Tween-80)?
**A.** 98 % of control

Source: PubChem BioAssay AID256 (DTP/NCI, 2004)
